# Source: US9382254B2, “Compounds and pharmaceutical compositions thereof for the treatment of cystic fibrosis” (Galapagos NV, priority 2013, dated 2016)
# Biological target: T1, CFTR ΔF508 mutant (Homo sapiens, UniProt P13569, DEL508-508)
# T1 construct: expressed in transfected cells; host or cells: CFBE41o- (adenoviral transduction)
# Experiment: YFP-halide influx assay for the CFTR-ΔF508 mutation (384 well, FDSS/μCell)
# Assay type: cell-based
# Conditions: CFBE41o- cells, CFTR-ΔF508, 1×D-PBS, fluorescence after 36 seconds
# How it was run: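 Potentiator read-out as 1−F/F0, F taken 36 s after iodide addition, EC50 fitted against compound concentration. Cells: CFBE41o- expressing ΔF508 CFTR plus halide-sensitive YFP via adenovirus, rescued by 27 °C for 24 h or 24 h modulator at 37 °C.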
# T1 sequence (P13569 with tags, fused parts or gaps DEL508-508): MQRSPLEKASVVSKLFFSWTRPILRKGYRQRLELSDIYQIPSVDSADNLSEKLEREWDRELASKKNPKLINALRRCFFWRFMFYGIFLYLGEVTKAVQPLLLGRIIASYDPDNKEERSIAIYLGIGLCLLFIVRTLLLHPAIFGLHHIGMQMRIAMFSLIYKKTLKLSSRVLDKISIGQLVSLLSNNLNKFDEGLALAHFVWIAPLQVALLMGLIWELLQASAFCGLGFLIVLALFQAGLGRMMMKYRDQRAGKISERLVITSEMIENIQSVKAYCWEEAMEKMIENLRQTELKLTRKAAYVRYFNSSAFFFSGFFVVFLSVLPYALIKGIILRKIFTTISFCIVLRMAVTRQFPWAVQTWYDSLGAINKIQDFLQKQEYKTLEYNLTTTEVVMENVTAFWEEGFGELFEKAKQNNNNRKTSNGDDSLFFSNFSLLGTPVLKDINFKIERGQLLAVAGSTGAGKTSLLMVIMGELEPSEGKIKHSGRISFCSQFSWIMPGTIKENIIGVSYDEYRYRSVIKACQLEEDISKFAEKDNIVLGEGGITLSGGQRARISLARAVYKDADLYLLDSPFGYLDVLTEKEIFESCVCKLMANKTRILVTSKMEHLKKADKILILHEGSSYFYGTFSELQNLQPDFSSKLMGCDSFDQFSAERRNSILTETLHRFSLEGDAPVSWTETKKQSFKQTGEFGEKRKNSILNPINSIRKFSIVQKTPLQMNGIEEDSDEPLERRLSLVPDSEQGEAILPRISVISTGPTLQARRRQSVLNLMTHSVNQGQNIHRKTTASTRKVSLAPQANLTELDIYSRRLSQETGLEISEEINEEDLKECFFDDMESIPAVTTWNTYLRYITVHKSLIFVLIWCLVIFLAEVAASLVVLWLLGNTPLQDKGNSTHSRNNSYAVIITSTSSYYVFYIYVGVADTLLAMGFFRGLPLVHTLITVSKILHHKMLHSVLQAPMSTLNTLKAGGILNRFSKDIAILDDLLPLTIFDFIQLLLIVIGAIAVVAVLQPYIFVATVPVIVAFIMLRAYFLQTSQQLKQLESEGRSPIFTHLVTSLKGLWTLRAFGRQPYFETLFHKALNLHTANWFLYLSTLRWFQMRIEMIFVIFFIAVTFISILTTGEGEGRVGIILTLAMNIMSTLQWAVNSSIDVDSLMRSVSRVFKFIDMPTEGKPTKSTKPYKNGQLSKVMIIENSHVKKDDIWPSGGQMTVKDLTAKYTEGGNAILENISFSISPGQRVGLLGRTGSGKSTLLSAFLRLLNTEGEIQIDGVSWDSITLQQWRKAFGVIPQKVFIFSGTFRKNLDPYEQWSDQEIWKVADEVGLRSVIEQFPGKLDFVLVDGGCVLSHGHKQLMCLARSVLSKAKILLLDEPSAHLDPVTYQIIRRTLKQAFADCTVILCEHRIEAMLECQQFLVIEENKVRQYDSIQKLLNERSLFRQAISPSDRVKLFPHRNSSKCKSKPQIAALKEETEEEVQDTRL
row,SMILES,EC50 [nM]
1,"NC(=O)c1cc(S(=O)(=O)c2ccc(OC(F)(F)F)cc2)sc1NC(=O)C1CCCO1 (stereo not drawn) [Compound 442, N-[3-carbamoyl-5-[4-(trifluoromethoxy)phenyl]sulfonyl-2-thienyl] tetrahydrofuran-2-carboxamide]",90.9
2,"NC(=O)c1cc(S(=O)(=O)c2ccc(OC(F)(F)F)cc2)sc1NC(=O)C1CCOC1 (stereo not drawn) [Compound 443, N-[3-carbamoyl-5-[4-(trifluoromethoxy)phenyl]sulfonyl-2-thienyl] tetrahydrofuran-3-carboxamide]",107

# Biological target: T1, CFTR ΔF508 mutant
# Experiment: YFP-halide influx assay for the CFTR-ΔF508 mutation, gluconate buffer
# Assay type: cell-based
# Conditions: CFBE41o- cells, forskolin 10.67 μM
# Excerpt: The YFP halide influx assay measures the functionality of the cystic fibrosis Transmembrane Conductance regulator (CFTR) channels in the cystic fibrosis bronchial epithelium cell line CFBE41o-. The assay is used to evaluate the capacity of compounds to increase the open probability of existing CFTR channels in the membrane. It makes use of the observation that the yellow fluorescent protein (YFP) variant YFP H148Q, I152L has its fluorescence substantially quenched by halide ions like Cl^− and I^−. (Galietta, Haggie, & Verkman, 2001) (Nagai, et al., 2002)
# For this purpose, CFBE41o-cells are seeded in 96 well plates (6000 CFBE cells/well). One day after seeding, the CFBE cells are transduced with adenoviral vectors that direct the expression of the CFTR ΔF508 mutant and of the YFP reporter. Cells are incubated at 27° C., 5% CO2 for 24 hours so as to allow for the proper folding and migration to the membrane of the CFTR channel or treated with a CFTR modulator during 24 hours at 37° C.
# The I^−-induced quenching of fluorescence is recorded immediately after injection of I^− for 7 seconds. The capacity of a compound to increase the channel opening is directly correlated with the decrease in fluorescence, and is expressed as (1-(fluorescence after 7 seconds (F)/fluorescence before injection (F0))) and an EC50 can be derived from a (1-F/F0) vs compound concentration plot.
row,SMILES,EC50 [nM]
1,"Cc1ccc(C(=O)Nc2sc(S(=O)(=O)N3CCCCC3)cc2C(N)=O)s1 [Compound 1, N-(3-carbamoyl-5-(piperidin-1-ylsulfonyl)thiophen-2-yl)-5-methylthiophene-2-carboxamidc]",135
2,"NC(=O)c1cc(S(=O)(=O)N2CCCCC2)sc1NC(=O)c1cc2c(F)cccc2s1 [Compound 2, N-(3-carbamoyl-5-(piperidin-1-ylsulfonyl)thiophen-2-yl)-4-fluorobenzo[b] thiophene-2-carboxamide]",483
3,"Cc1ccc(C(=O)Nc2sc(S(=O)(=O)N3CCN(C)CC3)cc2C(N)=O)s1 [Compound 5, N-(3-carbamoyl-5-(4-methylpiperazin-1-ylsulfonyl)thiophen-2-yl)-5-methylthiophene-2-carboxamide]",944
4,"Cc1ccc(C(=O)Nc2sc(S(=O)(=O)N(C)Cc3ccccc3)cc2C(N)=O)s1 [Compound 6, N-(5-(N-benzyl-N-methylsulfamoyl)-3-carbamoylthiophen-2-yl)-5-methylthiophene-2-carboxamide]",321
5,"Cc1ccc(C(=O)Nc2sc(S(=O)(=O)N(C)c3ccccc3)cc2C(N)=O)s1 [Compound 7, N-(3-carbamoyl-5-(N-methyl-N-phenylsulfamoyl)thiophen-2-yl)-5-methylthiophen-2-carboxamide]",1080
6,"Cc1ccc(C(=O)Nc2sc(S(=O)(=O)N3Cc4ccccc4C3)cc2C(N)=O)s1 [Compound 8, N-(3-carbamoyl-5-(isoindolin-2-ylsulfonyl)thiophen-2-yl)-5-methylthiphen-2-carboxamide]",646
7,"NC(=O)c1cc(S(=O)(=O)N2CCCCC2)sc1NC(=O)c1cc2c(s1)CCCC2 [Compound 9, N-(3-carbamoyl-5-(piperidin-1-ylsulfonyl)thiophen-2-yl)-4,5,6,7-tetrahydrobenzo[b] thiophene-2-carboxamide]",603
8,"NC(=O)c1cc(S(=O)(=O)N2CCCCC2)sc1NC(=O)c1cc2ccccc2s1 [Compound 10, N-(3-carbamoyl-5-(piperidin-1-ylsulfonyl)thiophen-2-yl)benzo[b] thiophene-2-carboxamide]",628
9,"N#Cc1cccc(C(=O)Nc2sc(S(=O)(=O)N3CCCCC3)cc2C(N)=O)c1 [Compound 11, 2-(3-cyanobenzamido)-5-(piperidin-1-ylsulfonyl) thiophene-3-carboxamide]",568
10,"NC(=O)c1cc(S(=O)(=O)N2CCCCC2)sc1NC(=O)c1ccc2ncsc2c1 [Compound 12, N-(3-carbamoyl-5-(piperidin-1-ylsulfonyl)thiophen-2-yl)benzo[d] thiazole-6-carboxamide]",887
11,"NC(=O)c1cc(S(=O)(=O)N2CCCCC2)sc1NC(=O)C1CCCC1 [Compound 13, 2-(cyclopentanecarboxamido)-5-(piperidin-1-ylsulfonyl)thiophene-3-carboxamide]",401
12,"NC(=O)c1cc(S(=O)(=O)N2CCCCC2)sc1NC(=O)c1cccc(F)c1 [Compound 14, 2-(3-fluorobenzamido)-5-(piperidin-1-ylsulfonyl)thiophene-3-carboxamide]",357
13,"Cc1ccc(C(=O)Nc2sc(S(=O)(=O)N(C)C)cc2C(N)=O)s1 [Compound 15, N-(3-carbamoyl-5-(N,N-dimethylsulfamoyl)thiophen-2-yl)-5-methylthiophene-2-carboxamide]",169
14,"NC(=O)c1cc(S(=O)(=O)N2CCCCC2)sc1NC(=O)c1ccccc1Cl [Compound 17, 2-(2-chlorobenzamido)-5-(piperidin-1-ylsulfonyl)thiophene-3-carboxamide]",265
15,"COc1cccc(C(=O)Nc2sc(S(=O)(=O)N3CCCCC3)cc2C(N)=O)c1 [Compound 18, 2-(3-methoxybenzamido)-5-(piperidin-1-ylsulfonyl)thiophene-3-carboxamide]",472
16,"NC(=O)c1cc(S(=O)(=O)N2CCCCC2)sc1NC(=O)c1ccccc1F [Compound 19, 2-(2-fluorobenzamido)-5-(piperidin-1-ylsulfonyl)thiophene-3-carboxamide]",118

row,SMILES,EC50 [nM]
1,"NC(=O)c1cc(S(=O)(=O)N2CCCCC2)sc1NC(=O)c1ccc(Cl)cc1 [Compound 20, 2-(4-chlorobenzamido)-5-(piperidin-1-ylsulfonyl)thiophene-3-carboxamide]",392
2,"COc1ccc(C(=O)Nc2sc(S(=O)(=O)N3CCCCC3)cc2C(N)=O)cc1 [Compound 21, 2-(4-methoxybenzamido)-5-(piperidin-1-ylsulfonyl)thiophene-3-carboxamide]",484
3,"N#Cc1ccc(C(=O)Nc2sc(S(=O)(=O)N3CCCCC3)cc2C(N)=O)cc1 [Compound 22, 2-(4-cyanobenzamido)-5-(piperidin-1-ylsulfonyl)thiophene-3-carboxamide]",317
4,"CC(C)(C)c1ccc(C(=O)Nc2sc(S(=O)(=O)N3CCCCC3)cc2C(N)=O)s1 [Compound 23, 5-tert-butyl-N-(3-carbamoyl-5-(piperidin-1-ylsulfonyl)thiophen-2-yl) thiophene-2-carboxamide]",642
5,"COc1ccccc1C(=O)Nc1sc(S(=O)(=O)N2CCCCC2)cc1C(N)=O [Compound 24, 2-(2-methoxybenzamido)-5-(piperidin-1-ylsulfonyl)thiophene-3-carboxamide]",772
6,"N#Cc1ccccc1C(=O)Nc1sc(S(=O)(=O)N2CCCCC2)cc1C(N)=O [Compound 25, 2-(2-cyanobenzamido)-5-(piperidin-1-ylsulfonyl)thiophene-3-carboxamide]",945
7,"NC(=O)c1cc(S(=O)(=O)N2CCCCC2)sc1NC(=O)c1ccc(F)cc1 [Compound 26, 2-(4-fluorobenzamido)-5-(piperidin-1-ylsulfonyl)thiophene-3-carboxamide]",289
8,"CC(C)(C)c1ccc(C(=O)Nc2sc(S(=O)(=O)N3CCCCC3)cc2C(N)=O)cc1 [Compound 27, 2-(4-tert-butylbenzamido)-5-(piperidin-1-ylsulfonyl)thiophene-3-carboxamide]",290
9,"CCCC(=O)Nc1sc(S(=O)(=O)N2CCCCC2)cc1C(N)=O [Compound 28, 2-butyramido-5-(piperidin-1-ylsulfonyl)thiophene-3-carboxamide]",624
10,"CC(C)(C)C(=O)Nc1sc(S(=O)(=O)N2CCCCC2)cc1C(N)=O [Compound 29, 5-(piperidin-1-ylsulfonyl)-2-pivalamidothiophene-3-carboxamide]",272
11,"Cn1ccc(C(=O)Nc2sc(S(=O)(=O)N3CCCCC3)cc2C(N)=O)n1 [Compound 30, N-(3-carbamoyl-5-(piperidin-1-ylsulfonyl)thiophen-2-yl)-1-methyl-1H-pyrazole-3-carboxamide]",910
12,"CC1(C(=O)Nc2sc(S(=O)(=O)N3CCCCC3)cc2C(N)=O)CC1 [Compound 31, 2-(1-methylcyclopropanecarboxamido)-5-(piperidin-1-ylsulfonyl) thiophene-3-carboxamide]",184
13,"NC(=O)c1cc(S(=O)(=O)N2CCCCC2)sc1NC(=O)Cc1ccc(F)cc1 [Compound 32, 2-(2-(4-fluorophenyl)acetamido)-5-(piperidin-1-ylsulfonyl)thiophene-3-carboxamide]",1500
14,"Cc1nnc(C(=O)Nc2sc(S(=O)(=O)N3CCCCC3)cc2C(N)=O)o1 [Compound 33, N-(3-carbamoyl-5-(piperidin-1-ylsulfonyl)thiophen-2-yl)-5-methyl-1,3,4-oxadiazole-2-carboxamide]",9840
15,"NC(=O)c1cc(S(=O)(=O)N2CCCCC2)sc1NC(=O)c1cnccn1 [Compound 34, N-(3-carbamoyl-5-(piperidin-1-ylsulfonyl)thiophen-2-yl)pyrazine-2-carboxamide]",290
16,"NC(=O)c1cc(S(=O)(=O)N2CCCCC2)sc1NC(=O)c1c[nH]cn1 [Compound 35, N-(3-carbamoyl-5-(piperidin-1-ylsulfonyl)thiophen-2-yl)-1H-imidazole-4-carboxamide]",3280

# Biological target: T2, CFTR G551D mutant (Homo sapiens, UniProt P13569, G551D)
# T2 construct: expressed in transfected cells; host or cells: HEK293 (reverse transfection with plasmid)
# T2 sequence (P13569 whole entry G551D): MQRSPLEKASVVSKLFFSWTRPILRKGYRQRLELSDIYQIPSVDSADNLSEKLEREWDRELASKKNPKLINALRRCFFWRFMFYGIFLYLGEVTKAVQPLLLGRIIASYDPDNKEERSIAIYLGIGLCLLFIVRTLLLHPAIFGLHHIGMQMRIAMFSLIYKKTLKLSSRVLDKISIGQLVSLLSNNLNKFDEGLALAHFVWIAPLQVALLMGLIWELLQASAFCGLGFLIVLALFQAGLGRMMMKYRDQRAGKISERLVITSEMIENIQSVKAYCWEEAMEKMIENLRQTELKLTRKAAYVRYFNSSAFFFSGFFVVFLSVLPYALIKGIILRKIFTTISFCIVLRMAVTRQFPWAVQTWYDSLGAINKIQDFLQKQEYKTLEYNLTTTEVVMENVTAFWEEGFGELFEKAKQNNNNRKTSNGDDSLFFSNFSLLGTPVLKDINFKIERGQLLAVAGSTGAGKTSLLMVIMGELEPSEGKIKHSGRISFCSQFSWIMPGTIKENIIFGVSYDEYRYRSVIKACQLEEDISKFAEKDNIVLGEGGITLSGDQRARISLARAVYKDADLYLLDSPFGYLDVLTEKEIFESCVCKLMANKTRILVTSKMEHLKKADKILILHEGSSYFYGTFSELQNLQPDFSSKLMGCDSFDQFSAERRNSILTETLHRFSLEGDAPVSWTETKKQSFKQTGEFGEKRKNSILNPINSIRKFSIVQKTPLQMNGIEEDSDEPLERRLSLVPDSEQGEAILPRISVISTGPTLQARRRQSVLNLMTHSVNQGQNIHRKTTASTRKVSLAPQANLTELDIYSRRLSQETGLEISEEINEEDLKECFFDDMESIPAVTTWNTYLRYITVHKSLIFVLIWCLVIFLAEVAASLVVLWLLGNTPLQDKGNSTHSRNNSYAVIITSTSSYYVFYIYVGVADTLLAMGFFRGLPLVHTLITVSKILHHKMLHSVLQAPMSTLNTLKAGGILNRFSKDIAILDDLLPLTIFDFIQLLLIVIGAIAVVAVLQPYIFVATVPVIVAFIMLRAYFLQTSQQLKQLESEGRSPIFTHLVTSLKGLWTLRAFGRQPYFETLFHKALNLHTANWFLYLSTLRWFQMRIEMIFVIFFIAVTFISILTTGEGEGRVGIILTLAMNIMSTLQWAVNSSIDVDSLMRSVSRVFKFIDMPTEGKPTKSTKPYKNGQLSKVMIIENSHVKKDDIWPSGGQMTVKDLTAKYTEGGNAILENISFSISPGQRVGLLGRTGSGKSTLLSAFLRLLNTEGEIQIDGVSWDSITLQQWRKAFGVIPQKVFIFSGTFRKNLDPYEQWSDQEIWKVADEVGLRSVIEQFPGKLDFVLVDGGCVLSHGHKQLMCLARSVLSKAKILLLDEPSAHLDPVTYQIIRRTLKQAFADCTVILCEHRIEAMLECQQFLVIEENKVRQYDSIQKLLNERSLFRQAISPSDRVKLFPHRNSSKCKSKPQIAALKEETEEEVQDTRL
# Experiment: YFP-halide influx assay for the CFTR-G551D mutation
# Assay type: cell-based
# Conditions: HEK293 cells, forskolin 10.67 μM
# How it was run: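 Channel opening potentiation measured as 1−F/F0, where F is YFP fluorescence 7 s after iodide injection and F0 before; EC50 taken from concentration plot. Cells: HEK293 transiently expressing CFTR G551D plus halide-sensitive YFP (H148Q, I152L, F47L), 24 h at 37 °C, 5% CO2.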
row,SMILES,EC50 [nM]
1,"NC(=O)c1cc(S(=O)(=O)c2ccc(OC(F)(F)F)cc2)sc1NC(=O)C1CCCO1 (stereo not drawn) [Compound 442, N-[3-carbamoyl-5-[4-(trifluoromethoxy)phenyl]sulfonyl-2-thienyl] tetrahydrofuran-2-carboxamide]",3330
2,"NC(=O)c1cc(S(=O)(=O)c2ccc(OC(F)(F)F)cc2)sc1NC(=O)C1CCOC1 (stereo not drawn) [Compound 443, N-[3-carbamoyl-5-[4-(trifluoromethoxy)phenyl]sulfonyl-2-thienyl] tetrahydrofuran-3-carboxamide]",3330
